Results from patent US9717719B2, “Treatment, prevention, and reversal of alcohol-induced liver disease” (Rhode Island Hospital, priority 2006, dated 2017).
“Also recorded” adds a separate entry of the source.

Key:
Type in all cases: in vivo, rat
[1] = tested on: insulin, IGF-I, IGF-II, their receptors, IRS-1, IRS-2, IRS-4 mRNA in liver; assay: qRT-PCR of hepatic insulin and IGF polypeptides, their receptors, and IRS molecules; details: relative to vehicle; for IGF-II mRNA: chronic ethanol feeding; for IGF-I mRNA: control rats
Source text: (§1) Chow fed control rats were also studied. Rats were monitored daily to ensure equivalent food consumption and maintenance of body weight. […] At the conclusion of the experiment, rats were anesthetized with vaporized isofluorane (SurgiVet, Inc. Waukesha, Wis.), and liver and blood were harvested for analysis. Liver tissue samples were immersion fixed in Histochoice (Amresco Corp., Solon, Ohio) and embedded in paraffin. Adjacent histological sections were stained with Hematoxylin and Eosin or Gomori's Trichrome and examined under code. In addition, liver tissue samples were snap-frozen in a dry ice methanol bath and then stored at −80° C. for later mRNA and protein studies. Throughout the experiment, rats were housed under humane conditions and kept on a 12-hour light/dark cycle with free access to food. All experiments were performed in accordance with protocols that conform to guidelines established by the National Institutes of Health and were approved by Institutional Animal Care and Use Committee at the Lifespan-Rhode Island Hospital.
Total RNA was extracted from liver tissue using TRIzol® reagent (Invitrogen, Carlsbad, Calif.) according to the manufacturer's protocol. RNA concentrations and purity were determined from the absorbances measured at 260 nm and 280 nm. RNA (2 μg) was reverse transcribed using the AMV First Strand cDNA synthesis kit (Roche Diagnostics Corporation, Indianapolis, Ind.) and random oligodeoxynucleotide primers. Quantitative reverse transcriptase polymerase chain reaction (qRT-PCR) assays were used to measure steady-state levels of specific mRNA transcripts. PCR amplifications were performed in 20 μl reactions containing cDNA generated from 2.5 ng of original RNA template, 300 nM each of gene specific forward and reverse primer (Table 2), and 10 μl of 2× QuantiTect SYBR Green PCR Mix (Qiagen Inc, Valencia, Calif.). The amplified signals were detected continuously with the Mastercycler ep realplex instrument and software (Eppendorf AG, Hamburg, Germany). The amplification protocol used was as follows: initial 15-minutes denaturation and enzyme activation at 95° C., 45 cycles of 95° C.×15 sec, 55°-60° C.×30 sec, and 72° C.×30 sec. Annealing temperatures were optimized using the temperature gradient program provided with the Mastercycler ep realplex software.
Complementary (c) DNAs were cloned into PCR-II vectors (Invitrogen, Carlsbad, Calif.). […] Serial dilutions of recombinant plasmid DNA containing target sequences were used as standards in PCR reactions, and regression lines generated from the Ct values of the standards were used to calculate mRNA abundance. Relative mRNA expression was expressed as the ng ratio of specific mRNA to ribosomal (r) 18S measured in the same samples because 18S is highly abundant and the levels are not modulated with disease state. Statistical comparisons were made using the calculated mRNA/18S ratios.

Long Evans rats = assay: Liver histology in the chronic ethanol exposure model; details: for extents of micro- and macrosteatosis / liver histology (hepatic architecture): ethanol-fed rats; for liver histology (hepatic architecture): relative to vehicle
Source text: as §1

[2] = tested on: Long-Evans male rats fed a 37% ethanol liquid diet; assay: Lipid peroxidation in liver by HNE immunostaining; details: chronic ethanol fed rats
Protocol: An isocaloric (sucrose substituted for ethanol) diet was administered to pair fed control animals. After three weeks, both groups of rats were injected with either PPAR-α, γ, or δ agonists or saline as a control. […] The […] were given IP injections twice a week. At 6 weeks, the animals underwent 2/3 partial hepatectomy. The removed liver was used for histology, measurement of lipid peroxidation, DNA damage and insulin/IGF signaling as described below. Following ⅔ hepatectomy, the liver remnants were harvested 18, 24, 30 and 48 hours later to assess the regenerative response. To do this, animals were injected IP with BrdU 2 hours before harvest to measure its incorporation into hepatic nuclei as an index of DNA synthesis.
Paraffin sections (8 μm thick) were immunostained with monoclonal antibodies to 8-hydroxy-deoxyguanosine (8-OHdG) (Oxis Research) or 4-hydroxynonenol (HNE) (Chemicon International, Temecula, Calif.), to detect DNA damage and lipid peroxidation, respectively. Prior to immunostaining, the deparaffinized, re-hydrated sections were treated with 0.1 mg/ml saponin in phosphate buffered saline (10 mM sodium phosphate, 0.9% NaCl, pH 7.4; PBS) for 20 minutes at room temperature, followed by 3% hydrogen peroxide in methanol for 10 minutes to quench endogenous peroxidase activity, and then a 30-minute incubation in SuperBlock-TBS (Pierce Chemical Co., Rockford, Ill.) to block non-specific binding sites. The tissue sections were then incubated overnight at 4° C. with 0.5-1 μg/ml of primary antibody. […] The tissue sections were counterstained with hematoxylin, preserved under coverglass, and examined by light microscopy.

| IRS-2 mRNA ([1]; ethanol-exposed rats) | Compound | IGF-II mRNA [1] | insulin gene expression ([1]; control group) | IGF-I mRNA [1] | extents of micro- and macrosteatosis (Long Evans rats) | liver histology (hepatic architecture) (Long Evans rats) | hepatic lipid peroxidation (HNE immunostaining) [2] | insulin gene expression ([1]; ethanol-exposed group) | liver histology (Long Evans rats; control rats, relative to vehicle-treated controls) | IRS-2 mRNA ([1]; control group) | insulin receptor mRNA ([1]; controls) | IRS-4 mRNA ([1]; ethanol-exposed group) | insulin receptor mRNA ([1]; ethanol-fed rat livers) | IRS-1 mRNA ([1]; ethanol-fed rats) |
| --- | --- | --- | --- | --- | --- | --- | --- | --- | --- | --- | --- | --- | --- | --- |
| significantly reduced | CC(C)C[C@H](NC(=O)OCC1c2ccccc2-c2ccccc21)C(=O)O [PPAR-γ, F-L-Leu] | significantly reduced | significantly increased | significantly increased | overtly reduced | reduced the disordered architecture; also recorded: most striking improvements in liver histology; also recorded: strikingly reduced the ethanol-associated architectural disarray and steatosis; also recorded: more effective than the PPAR-α agonist in restoring hepatic architecture | substantially improved | – | – | – | – | – | – | – |
| – | CC(C)(Sc1ccc(CCN(CCCCC2CCCCC2)C(=O)NC2CCCCC2)cc1)C(=O)O [PPAR-α, GW7647] | – | – | – | overtly reduced | reduced the disordered architecture; also recorded: strikingly reduced the ethanol-associated architectural disarray and steatosis | substantially improved | reduced | no detectable histological changes in liver; also recorded: no detectable effects on liver histology | – | – | – | – | – |
| – | CCCc1c(OCCCOc2ccc(OCC(=O)O)cc2)ccc(C(C)=O)c1O [PPAR-δ, L-165,041] | significantly reduced | significantly increased | significantly increased | overtly reduced | reduced the disordered architecture; also recorded: most striking improvements in liver histology; also recorded: strikingly reduced the ethanol-associated architectural disarray and steatosis; also recorded: more effective than the PPAR-α agonist in restoring hepatic architecture | substantially improved | reduced | – | significantly increased | increased | significantly reduced | significantly reduced | significantly reduced |
